pEC50, pIC50, pKi: −log10 of the molar value. Like-named read-outs stand apart in the source and are kept apart here.
Assays:
purified integrase = target: T1, purified integrase (Human immunodeficiency virus type 1 group M subtype B, UniProt P12497); experiment: HIV-Integrase binding assay (competition with radiolabeled integrase inhibitor); settings: competition with [3H]-labeled integrase inhibitor; Cheng and Prusoff
T1 construct: Recombinant integrase (0.26 ng) was incubated with the beads
Procedure: HIV-Integrase binding assay. In this assay competitive binding experiments with test compounds and a radiolabeled integrase inhibitor (compound A) are performed against purified integrase. […] Binding reactions were carried out in 96-well white polystyrene assay plates (Corning, #3600). The following was added sequentially to each well: 20 μl of water or 20μl of human serum (Cellgro Cat# 35-060-CL), 5 μl of serially diluted compound (in 50% DMSO/50% integrase SPA buffer), 5 μl of [^3H]-compound I (6,000 cpm/μl in SPA buffer) and 20 μl of bead/DNA/enzyme complex. The plates were shaken for 2 hours and then allowed to sit at room temperature without shaking overnight. The [^3H]-compound I binding was measured using a Topcount scintillation counter. Cheng and Prusoff equations were used to convert the inhibition of compound 1 binding into the corresponding Ki value. Activity equal to A refers to a compound having Ki=0.001 to 0.003 μM while B and C denote compounds having Ki=0.003 to 0.05 μM and Ki≧0.050 μM respectively.

[1] = tested on: recombinant NL-Rluc virus; experiment: Inhibition of HIV replication; assay type: cell-based; settings: three serum conditions described, the one tabulated is not stated
HIV-integrase = target: T2, HIV-integrase (Human immunodeficiency virus type 1 group M subtype B, UniProt P12497); experiment: HIV-Integrase Inhibition Activity (SPA strand transfer assay); assay type: biochemical; settings: recombinant integrase, SPA beads, P33 labeled target DNA
T2 construct: Recombinant integrase (0.26 ng) was incubated with the beads
Procedure: HIV-Integrase InhibitionActivity. To evaluate in-vitro activity against HIV-integrase, 5 pmole of biotin labeled substrate DNA was bound to 100 μg of Streptavidin coated PVT SPA beads (Amersham Pharmacia Biotech). Recombinant integrase (0.26 ng) was incubated with the beads for 90 min at 37° C. Unbound enzyme was removed by washing the complex followed by addition of inhibitors and 0.1 fmol of P33 labeled target DNA. The reaction was stopped by adding EDTA to a final concentration of 10 mM. Samples were counted in TopCountNXT (Packard) and the CPM was used as a measure of integration. The reaction condition was as described in A. Engelman and R. Craigie, J. Virol 69, 5908-5911 (1995). The sequences of substrate and target DNA were described in Nucleic Acid Research 22, 1121-1122 (1994). Activity equal to A refers to a compound having IC50=0.001 to 0.01 μM B=0.01-0.1, and C≧0.1 μM respectively.

[2] = Human immunodeficiency virus 1, read-out: Antiviral Activity, NL-RLuc virus
[3] = read-out: Antiviral Activity, NL-RLuc virus

SMILES	pKi (purified integrase)	pEC50 [1, 2]	pEC50 [1, 3]	pIC50 (HIV-integrase)
CN(C)C(=O)C(=O)N1CCC2(CC1)OCCCn1c2nc(C(=O)NCc2ccc(F)cc2)c(O)c1=O [Example 75, 1-(2-(Dimethylamino)-2-oxoacetyl)-N-(4-fluorobenzyl)-3′-hydroxy-4′-oxo-4′,6′,7′,8′-tetrahydrospiro[piperidine-4,10′-pyrimido[2,1-c][1,4]oxazepine]-2′-carboxamide]	7.30 to 8.52	7.00 to 8.00	–	–
Cc1ncnn1-c1cc(F)ccc1CNC(=O)c1nc2n(c(=O)c1O)CCCOC21CCN(S(C)(=O)=O)CC1 [Example 62]	7.30 to 8.52	–	7.00 to 8.00	–
Cc1ncnn1-c1cc(F)ccc1CNC(=O)c1nc2n(c(=O)c1O)CCOCC21CCN(S(=O)(=O)N(C)C)CC1 [Example 70]	7.30 to 8.52	7.00 to 8.00	–	–
CC(=O)N1CCC2(CC1)OCCCn1c2nc(C(=O)NCc2ccc(F)cc2-n2ncnc2C)c(O)c1=O [Example 63]	7.30 to 8.52	7.00 to 8.00	–	–
CC(=O)N1CCC2(CC1)OCCCn1c2nc(C(=O)NCc2ccc(F)cc2)c(O)c1=O [Example 57, 1-Acetyl-N-(4-fluorobenzyl)-3′-hydroxy-4′-oxo-4′,6′,7′,8′-tetrahydrospiro-[piperidine-4,10′-pyrimido[2,1-c][1,4]oxazepine]-2′-carboxamide]	8.52 to 9.00	8.00 to 9.00	–	–
Cc1ncnn1-c1cc(F)ccc1CNC(=O)c1nc2n(c(=O)c1O)CCCOC21CCN(C(=O)N(C)C)CC1 [Example 65]	7.30 to 8.52	8.00 to 9.00	–	–
Cc1ncnn1-c1cc(F)ccc1CNC(=O)c1nc2n(c(=O)c1O)CCOCC21CCN(C(=O)N(C)C)CC1 [Example 71]	7.30 to 8.52	7.00 to 8.00	–	–
CCOC(=O)C(=O)N1CCC2(C1)OCCn1c2nc(C(=O)NCc2ccc(F)cc2)c(O)c1=O (stereo not shown) [Example 45, Ethyl 2-(2-(4-fluorobenzylcarbamoyl)-3-hydroxy-4-oxo-6,7-dihydro-4H-spiro[pyrimido[2,1-c][1,4]oxazine-9,3′-pyrrolidine]-1′-yl)-2-oxoacetate]	8.52 to 9.00	7.00 to 8.00	–	–
O=C(NCc1ccc(F)cc1)c1nc2n(c(=O)c1O)CCCOC21CCN(C(=O)OCc2ccccc2)CC1 [Example 48]	8.52 to 9.00	7.00 to 8.00	–	–
Cc1ncnn1-c1cc(F)ccc1CNC(=O)c1nc2n(c(=O)c1O)CCOCC21CCN(C(=O)OCc2ccccc2)CC1 [Example 55]	7.30 to 8.52	8.00 to 9.00	–	–
Cc1ncnn1-c1cc(F)ccc1CNC(=O)c1nc2n(c(=O)c1O)CCCOC21CCN(S(C)(=O)=O)CC1 [Example 73]	7.30 to 8.52	–	< 7.00	–
Cc1nnc(C(=O)N2CCC3(C2)OCCn2c3nc(C(=O)NCc3ccc(F)cc3)c(O)c2=O)o1 (stereo not shown) [Example 44, N-(4-Fluorobenzyl)-3-hydroxy-1′-(5-methyl-1,3,4-oxadiazole-2-carbonyl)-4-oxo-6,7-dihydro-4H-spiro[pyrimido[2,1-c][1,4]oxazine-9,3′-pyrrolidine]-2-carboxamide]	8.52 to 9.00	7.00 to 8.00	–	–
CS(=O)(=O)N1CCC2(CC1)OCCCn1c2nc(C(=O)NCc2ccc(F)cc2)c(O)c1=O [Example 60]	8.52 to 9.00	8.00 to 9.00	–	–
COC(=O)N1CCC2(CC1)OCCCn1c2nc(C(=O)NCc2ccc(F)cc2)c(O)c1=O [Example 58, Methyl 2′-(4-fluorobenzylcarbamoyl)-3′-hydroxy-4′-oxo-4′,6′,7′,8′-tetrahydrospiro[piperidine-4,10′-pyrimido[2,1-c][1,4]oxazepine]-1-carboxylate]	8.52 to 9.00	8.00 to 9.00	–	–
COC(=O)N1CCC2(CC1)COCCn1c2nc(C(=O)NCc2ccc(F)cc2-n2ncnc2C)c(O)c1=O [Example 72]	7.30 to 8.52	7.00 to 8.00	–	–
COC(=O)N1CCC2(CC1)OCCCn1c2nc(C(=O)NCc2ccc(F)cc2-n2ncnc2C)c(O)c1=O [Example 64]	7.30 to 8.52	8.00 to 9.00	–	–
Cc1nnc(C(=O)N2CCC3(CC2)NCCn2c3nc(C(=O)NCc3ccc(F)cc3)c(O)c2=O)o1 [Example 35, N-(4-Fluorobenzyl)-3′-hydroxy-1-(5-methyl-1,3,4-oxadiazole-2-carbonyl)-4′-oxo-4′,6′,7′,8′-tetrahydrospiro[piperidine-4,9′-pyrazino[1,2-a]pyrimidine]-2′-carboxamide]	7.30 to 8.52	7.00 to 8.00	–	–
Cc1nnc(C(=O)N2CCC3(CC2)OCCCn2c3nc(C(=O)NCc3ccc(F)cc3-n3ncnc3C)c(O)c2=O)o1 [Example 67]	7.30 to 8.52	7.00 to 8.00	–	–
Cc1ncnn1-c1cc(F)ccc1CNC(=O)c1nc2n(c(=O)c1O)CCCOC21CCN(C(=O)OCc2ccccc2)CC1 [Example 53]	7.30 to 8.52	8.00 to 9.00	–	–
Cc1ncnn1-c1cc(F)ccc1CNC(=O)c1nc2n(c(=O)c1O)CCOC21CCN(C(=O)OC(C)C)C1 (stereo not shown) [Example 43, Isopropyl 2-(4-fluoro-2-(5-methyl-1H-1,2,4-triazol-1-yl)benzylcarbamoyl)-3-hydroxy-4-oxo-6,7-dihydro-4H-spiro[pyrimido[2,1-c][1,4]oxazine-9,3′-pyrrolidine]-1′-carboxylate]	–	7.00 to 8.00	–	7.00 to 8.00
Cc1ccc(S(=O)(=O)N2CCC3(CC2)OCCn2c3nc(C(=O)NCc3ccc(F)cc3-n3ncnc3C)c(O)c2=O)cc1 [Example 16]	–	8.00 to 9.00	–	7.00 to 8.00
O=C(NCc1ccc(F)cc1S(=O)(=O)N1CCOCC1)c1nc2n(c(=O)c1O)CCCOC21CCN(C(=O)OCc2ccccc2)CC1 [Example 52]	–	7.00 to 8.00	–	7.00 to 8.00
Cc1ccc(F)cc1S(=O)(=O)N1CCC2(CC1)OCCn1c2nc(C(=O)NCc2ccc(F)cc2-n2ncnc2C)c(O)c1=O [Example 21]	–	8.00 to 9.00	–	7.00 to 8.00
O=C(O)C(=O)N1CCC2(CC1)OCCn1c2nc(C(=O)NCc2ccc(F)cc2)c(O)c1=O [Example 29, 2-(2′-(4-Fluorobenzylcarbamoyl)-3′-hydroxy-4′-oxo-6′,7′-dihydro-4′H-spiro[piperidine-4,9′-pyrimido[2,1-c][1,4]oxazine]-1-yl)-2-oxoacetic acid]	–	< 7.00	–	8.00 to 9.00
Cc1ncnn1-c1cc(F)ccc1CNC(=O)c1nc2n(c(=O)c1O)CCOC21CCN(S(C)(=O)=O)C1 (stereo not shown) [Example 39, N-(4-Fluoro-2-(5-methyl-1H-1,2,4-triazol-1-yl)benzyl)-3-hydroxy-1′-(methylsulfonyl)-4-oxo-6,7-dihydro-4H-spiro[pyrimido[2,1-c][1,4]oxazine-9,3′-pyrrolidine]-2-carboxamide]	–	7.00 to 8.00	–	7.00 to 8.00
CNC(=O)c1nc2n(c(=O)c1O)CCOC21CCN(S(=O)(=O)c2cc(F)ccc2C)CC1 [Example 25, 1-(5-Fluoro-2-methylphenylsulfonyl)-3′-hydroxy-N-methyl-4′-oxo-6′,7′-dihydro-4′H-spiro[piperidine-4,9′-pyrimido[2,1-c][1,4]oxazine]-2′-carboxamide]	–	< 7.00	–	≤ 7.00
CC(C)OC(=O)N1CCC2(C1)OCCn1c2nc(C(=O)NCc2ccc(F)cc2)c(O)c1=O (stereo not shown) [Example 42, Isopropyl 2-(4-fluorobenzylcarbamoyl)-3-hydroxy-4-oxo-6,7-dihydro-4H-spiro[pyrimido[2,1-c][1,4]oxazine-9,3′-pyrrolidine]-1′-carboxylate]	–	8.00 to 9.00	–	8.00 to 9.00
CS(=O)(=O)N1CCC2(CC1)OCCn1c2nc(C(=O)NCc2ccc(F)cc2-n2cncn2)c(O)c1=O [Example 7]	–	8.00 to 9.00	–	8.00 to 9.00
CN1CCN(S(=O)(=O)c2cc(F)ccc2CNC(=O)c2nc3n(c(=O)c2O)CCCOC32CCN(C(=O)OCc3ccccc3)CC2)CC1 [Example 50]	–	7.00 to 8.00	–	7.00 to 8.00

— patent US7897593B2, “HIV integrase inhibitors” (priority 2006, dated 2011)
